Data published in patent publication EP0031801A2, “6-Substituted 4-(2',3'-dichlorophenyl)-2-methyl-1,4-dihydropyridine-3,5-dicarboxylic acid diesters having hypotensive properties as well as process for their preparation and pharmaceutical preparations containing same” (priority 1979, dated 1981).

Key:
[1] = test system: spontaneously hypertensive rats (SHR) of the Okamoto strain; test: Antihypertensive effect in conscious, unrestrained spontaneously hypertensive rats, oral dosing; format: in vivo; settings: Rattus norvegicus; dose giving 20 per cent reduction of mean arterial BP, by interpolation; oral intubation, cumulated doses at 2 hour intervals, suspended in methocel solution
Method: The antihypertensive effect of the compounds was tested in conscious, unrestrained spontaneously hypertensive rats (SHR) of the Okamoto strain. The animals had been prepared by prior implantation of indwelling catheters in the abdominal aorta via the femoral artery. Mean arterial blood pressure (MABP) and heart rate were continuously monitored. After a 2 hour control period the compound under study was administered by oral intubation at 2 hour intervals, suspended in methocel solution (5 ml/kg bodyweight). The cumulated doses were […] bodyweight. The antihypertensive response, i.e. the BP reduction to each dose, was expressed as a percentage of the initial control BP level and plotted against the dose on a logarithmic scale. The dose which would give 20 per cent BP reduction was then determined by interpolation.

[2] = test system: isolated portal vein preparation / paced isolated papillary heart muscle preparation; test: Specificity towards smooth muscle relaxation: isolated portal vein versus paced papillary heart muscle in an organ bath; set-up: species or system Wistar rats; settings: "separation" value: averaged difference of -log ED50 portal vein (vasodilatation) and -log ED50 papillary muscle (myocardial depression), transformed into numeric format
Method: The specificity towards smooth muscle relaxation was examined as follows: The isolated portal vein preparation of Wistar rats was mounted in an organ bath together with a paced isolated papillary heart muscle preparation of the same animal. The integrated contractile activity of the portal vein smooth muscle and the peak force amplitude of the papillary, myocardial, preparation were recorded. The respective activities during a 30 min control period were set as 100 per cent and the ensuing activities under the influence of an agent under study were expressed as a percentage thereof. The agent was administered at 10 min intervals and the potency for vasodilatation(-log ED50 of-portal vein) and that of myocardial depression (-log ED50 of papillary muscle) were determined by interpolation from the concentration-effect relationships determined in each experiment. A "separation" value was determined for each compound by averaging the differences of the -log ED50 values for vasodilatation and myocardial depression, respectively, obtained in the experiments. This logarithmic separation value was transformed into numeric format and entered into table 2.

Row | SMILES | ED20 [1] [µmol/kg] | Ratio heart vasc. [2]
1 | COC(=O)C1=C(C)NC(C)=C(C(=O)OC)C1c1ccccc1[N+](=O)[O-] [Nifedipin, 2,6-dimethyl-4-(2-nitrophenyl)-1,4-dihydropyridine-3,5-dicarboxylic acid-3,5-dimethylester, reference compound] | 5 | 15
2 | CCOC(=O)C1=C(COC)NC(C)=C(C(=O)OC)C1c1cccc(Cl)c1Cl (stereo not drawn) [Example 2, 2-methoxymethyl-4-(2,3-dichlorophenyl)-6-methyl-1,4-dihydropyridine-3,5-dicarboxylic acid-3-ethylester-5-methylester] | 2 | 158
3 | CCOC(=O)C1=C(C(C)C)NC(C)=C(C(=O)OC)C1c1cccc(Cl)c1Cl (stereo not drawn) [Example 1, 2-isopropyl-4-(2,3-dichlorophenyl)-6-methyl-1,4-dihydropyridine-3,5-dicarboxylic acid-3-ethylester-5-methylester] | 2.5 | 98
